Key:
human recombinant HDAC6 = biological target: T1, human recombinant HDAC6 (Homo sapiens, UniProt Q9UBN7); test: HDAC6 enzyme activity inhibition assay (HDAC Fluorimetric Drug Discovery Kit); type: biochemical; settings: for HDAC6 selectivity (fold): HDAC6 over HDAC1; for IC50: human recombinant HDAC6, same protocol as HDAC1, read-out: HDAC6
T1 construct: purchased Calbiochem 382180
T1 sequence (Q9UBN7 1-1215): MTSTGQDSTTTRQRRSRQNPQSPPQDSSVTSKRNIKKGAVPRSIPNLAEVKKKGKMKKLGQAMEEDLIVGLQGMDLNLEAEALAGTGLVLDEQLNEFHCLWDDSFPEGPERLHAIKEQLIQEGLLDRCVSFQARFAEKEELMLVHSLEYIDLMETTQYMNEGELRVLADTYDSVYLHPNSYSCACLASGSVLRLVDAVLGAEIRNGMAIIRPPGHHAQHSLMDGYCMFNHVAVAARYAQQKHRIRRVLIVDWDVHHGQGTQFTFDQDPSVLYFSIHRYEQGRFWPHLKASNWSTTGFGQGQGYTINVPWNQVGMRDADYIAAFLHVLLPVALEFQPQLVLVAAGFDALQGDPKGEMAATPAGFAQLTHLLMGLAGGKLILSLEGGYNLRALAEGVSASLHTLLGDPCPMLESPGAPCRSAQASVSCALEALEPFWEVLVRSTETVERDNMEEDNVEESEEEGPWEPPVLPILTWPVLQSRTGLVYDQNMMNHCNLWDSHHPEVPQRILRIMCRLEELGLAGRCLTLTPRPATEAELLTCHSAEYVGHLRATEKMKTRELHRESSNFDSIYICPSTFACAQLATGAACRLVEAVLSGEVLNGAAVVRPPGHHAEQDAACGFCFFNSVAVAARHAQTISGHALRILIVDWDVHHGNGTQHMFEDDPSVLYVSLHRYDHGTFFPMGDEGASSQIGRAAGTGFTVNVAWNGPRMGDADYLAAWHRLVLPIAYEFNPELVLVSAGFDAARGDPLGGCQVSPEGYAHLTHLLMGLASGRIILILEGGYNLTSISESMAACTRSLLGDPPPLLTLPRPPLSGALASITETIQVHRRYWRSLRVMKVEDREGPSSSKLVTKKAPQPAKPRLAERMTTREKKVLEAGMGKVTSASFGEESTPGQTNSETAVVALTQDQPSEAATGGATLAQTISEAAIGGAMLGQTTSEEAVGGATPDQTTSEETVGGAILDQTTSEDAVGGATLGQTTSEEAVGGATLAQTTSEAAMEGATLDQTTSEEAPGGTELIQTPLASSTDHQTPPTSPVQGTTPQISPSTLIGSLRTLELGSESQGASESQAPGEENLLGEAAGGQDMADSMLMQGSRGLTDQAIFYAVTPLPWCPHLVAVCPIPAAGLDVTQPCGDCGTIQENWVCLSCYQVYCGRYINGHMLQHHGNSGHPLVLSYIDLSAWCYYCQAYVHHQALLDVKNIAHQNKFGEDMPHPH
Method in brief: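 Fluorimetric deacetylase assay: 5-fold serial compound dilutions, 0.3 μg recombinant human enzyme (HDAC1 or HDAC6, same protocol), 10 μM Fluor de Lys-SIRT1 substrate, 60 min at 30 °C. Signal developed 30 min, measured at 360/460 nm; IC50 values derived.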

human recombinant HDAC1 = biological target: T2, human recombinant HDAC1 (Homo sapiens, UniProt Q13547); test: HDAC1 enzyme activity inhibition assay (HDAC Fluorimetric Drug Discovery Kit); type: biochemical; settings: 30° C. 60 minutes
T2 construct: purchased Enzo Life Science BML-SE456
Procedure: In order to examine the HDAC6 selectivity of the compounds of formula I of the present invention by HDAC1 and HDAC6 enzymatic activity inhibition assays, an experiment was performed using a conventional substance as a control.
HDAC enzyme activity was measured using a HDAC Fluorimetric Drug Discovery Kit (BML-AK511, 516, Enzo Life Science). For the HDAC1 enzyme activity test, human recombinant HDAC1 (BML-SE456) was used as an enzyme source, and Fluor de Lys®-“SIRT1 (BNL-KI177) was used as a substrate. A 5-fold dilution of the compound was seeded into a 96-well plate, and then 0.3 μg of the enzyme and 10 μM of the substrate were added to each well of the plate and allowed to react at 30° C. for 60 minutes. Then, Fluor de Lys®-Developer II (BML-KI176) was added thereto and allowed to react for 30 minutes, after which the fluorescence value (Ex 360, Em 460) was measured using a multi-plate reader (Flexstation 3, Molecular Device). The HDAC6 enzyme was tested using human recombinant HDAC6 (382180) (Calbiochem) according to the same protocol as the HDAC1 enzyme activity test method. Based on the resulting values, each IC5, value was calculated using GraphPad Prism4.0 program.

[1] = human recombinant HDAC1, Fluor de Lys substrate 10 μM
[2] = human recombinant HDAC1, Fluor de Lys substrate

T2 sequence (Q13547 whole entry): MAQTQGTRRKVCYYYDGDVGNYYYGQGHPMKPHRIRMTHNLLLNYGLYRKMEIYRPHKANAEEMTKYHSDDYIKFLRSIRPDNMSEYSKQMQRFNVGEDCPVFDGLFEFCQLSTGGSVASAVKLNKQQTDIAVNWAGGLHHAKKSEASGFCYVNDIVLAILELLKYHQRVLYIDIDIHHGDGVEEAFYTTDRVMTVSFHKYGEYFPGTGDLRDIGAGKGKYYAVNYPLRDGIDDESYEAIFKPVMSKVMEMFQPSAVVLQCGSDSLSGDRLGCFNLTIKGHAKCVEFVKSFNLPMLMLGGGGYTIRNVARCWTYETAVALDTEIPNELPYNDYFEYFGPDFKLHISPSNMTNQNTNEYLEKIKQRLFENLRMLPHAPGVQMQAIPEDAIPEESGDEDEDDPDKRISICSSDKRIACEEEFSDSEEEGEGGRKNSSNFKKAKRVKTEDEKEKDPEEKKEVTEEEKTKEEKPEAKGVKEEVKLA

In the case of `O=C(N1CCS(=O)(=O)CC1)N(Cc1ccc(-c2nnc(C(F)(F)F)o2)cc1)c1ccc(-c2cccnc2)cc1` [Compound 21489, N-(4-(pyridin-3-yl)phenyl)-N-(4-(5-(trifluoromethyl)-1,3,4-oxadiazol-2-yl)benzyl)thiomorpholine-4-carboxamide 1,1-dioxide], the “HDAC6 selectivity (fold)” value (human recombinant HDAC6) is reported as 18 fold, the IC50 (human recombinant HDAC6) is reported as 89 nM and the IC50 (human recombinant HDAC1; [1]) is reported as 1.65 µM.
In the case of `CCN1CCN(C(=O)N(Cc2ccc(-c3nnc(C(F)F)o3)cc2)c2ccc(Cl)cc2)CC1` [Compound 21880, N-(4-Chlorophenyl)-N-(4-(5-(difluoromethyl)-1,3,4-oxadiazol-2-yl)benzyl)-4-ethylpiperazine-1-carboxamide], the “HDAC6 selectivity (fold)” value (human recombinant HDAC6) is reported as 467 fold, the IC50 (human recombinant HDAC6) is reported as 95 nM and the IC50 (human recombinant HDAC1; [1]) is reported as 44.4 µM.
`O=C(N1CCOCC1)N(Cc1ccc(-c2nnc(C(F)F)o2)cc1F)c1cccc(Cl)c1` [Compound 21853, N-(3-chlorophenyl)-N-(4-(5-(difluoromethyl)-1,3,4-oxadiazol-2-yl)-2-fluorobenzyl)morpholine-4-carboxamide] was tested, and the “HDAC6 selectivity (fold)” value (human recombinant HDAC6) was 540 fold, the IC50 (human recombinant HDAC6) was 53 nM and the IC50 (human recombinant HDAC1; [1]) was 28.8 µM.
With `CCN1CCN(C(=O)N(Cc2ccc(-c3nnc(C(F)(F)F)o3)cc2)c2cccc(Cl)c2)CC1` [Compound 21860, N-(3-Chlorophenyl)-4-ethyl-N-(4-(5-(trifluoromethyl)-1,3,4-oxadiazol-2-yl)benzyl)piperazine-1-carboxamide] the “HDAC6 selectivity (fold)” value (human recombinant HDAC6) was 82 fold, the IC50 (human recombinant HDAC6) was 220 nM and the IC50 (human recombinant HDAC1; [1]) was 18 µM.
`O=C(N1CCC(F)(F)C1)N(Cc1ccc(-c2nnc(C(F)F)o2)cc1F)c1ccc(F)c(Cl)c1` [Compound 21667, N-(3-chloro-4-fluorophenyl)-N-(4-(5-(difluoromethyl)-1,3,4-oxadiazol-2-yl)-2-fluorobenzyl)-3,3-difluoropyrrolidine-1-carboxamide] was tested, and the “HDAC6 selectivity (fold)” value (human recombinant HDAC6) was 485 fold, the IC50 (human recombinant HDAC6) was 41 nM and the IC50 (human recombinant HDAC1; [1]) was 20.1 µM.
`O=C(N1CCS(=O)(=O)CC1)N(Cc1ccc(-c2nnc(C(F)(F)F)o2)cc1)c1ccc(-c2ccoc2)cc1` [Compound 21491, N-(4-(furan-3-yl)phenyl)-N-(4-(5-(trifluoromethyl)-1,3,4-oxadiazol-2-yl)benzyl)thiomorpholine-4-carboxamide 1,1-dioxide] was tested, and the “HDAC6 selectivity (fold)” value (human recombinant HDAC6) was 25 fold, the IC50 (human recombinant HDAC6) was 157 nM and the IC50 (human recombinant HDAC1; [1]) was 4.04 µM.
With `CN(C)[C@H]1CCN(C(=O)N(Cc2ccc(-c3nnc(C(F)F)o3)cc2F)c2ccc(F)cc2Cl)C1` [Compound 21651, (S)—N-(2-chloro-4-fluorophenyl)-N-(4-(5-(difluoromethyl)-1,3,4-oxadiazol-2-yl)-2-fluorobenzyl)-3-(dimethylamino)pyrrolidine-1-carboxamide] the “HDAC6 selectivity (fold)” value (human recombinant HDAC6) was 806 fold, the IC50 (human recombinant HDAC6) was 61 nM and the IC50 (human recombinant HDAC1; [1]) was 49.2 µM.
With `CCN1CCN(C(=O)N(Cc2ccc(-c3nnc(C(F)F)o3)cc2F)c2ccc(OC)cc2)CC1` [Compound 21893, N-(4-(5-(Difluoromethyl)-1,3,4-oxadiazol-2-yl)-2-fluorobenzyl)-4-ethyl-N-(4-methoxyphenyl)piperazine-1-carboxamide] the “HDAC6 selectivity (fold)” value (human recombinant HDAC6) was 640 fold, the IC50 (human recombinant HDAC6) was 59 nM and the IC50 (human recombinant HDAC1; [1]) was 37.6 µM.
With `O=C(N1CCS(=O)(=O)CC1)N(Cc1ccc(-c2nnc(C(F)F)o2)cn1)c1ccc(-c2cccnc2)cc1` [Compound 21824, N-((5-(5-(difluoromethyl)-1,3,4-oxadiazol-2-yl)pyridin-2-yl)methyl)-N-(4-(pyridin-3-yl)phenyl)thiomorpholine-4-carboxamide 1,1-dioxide] the “HDAC6 selectivity (fold)” value (human recombinant HDAC6) was 563 fold, the IC50 (human recombinant HDAC6) was 31 nM and the IC50 (human recombinant HDAC1; [1]) was 17.7 µM.
In the case of `O=C(N1CCS(=O)(=O)CC1)N(Cc1ccc(-c2nnc(C(F)(F)F)o2)cc1)c1cccc(-c2ccc3c(c2)OCO3)c1` [Compound 21437, N-(3-(benzo[d][1,3]dioxol-5-yl)phenyl)-N-(4-(5-(trifluoromethyl)-1,3,4-oxadiazol-2-yl)benzyl)thiomorpholine-4-carboxamide 1,1-dioxide], the “HDAC6 selectivity (fold)” value (human recombinant HDAC6) is reported as 11 fold, the IC50 (human recombinant HDAC6) is reported as 740 nM and the IC50 (human recombinant HDAC1; [1]) is reported as 8.22 µM.
With `O=C(N1CCS(=O)(=O)CC1)N(Cc1ccc(-c2nnc(C(F)F)o2)cn1)c1ccc(F)cc1` [Compound 21829, N-((5-(5-(difluoromethyl)-1,3,4-oxadiazol-2-yl)pyridin-2-yl)methyl)-N-(4-fluorophenyl)thiomorpholine-4-carboxamide 1,1-dioxide] the “HDAC6 selectivity (fold)” value (human recombinant HDAC6) was 1542 fold, the IC50 (human recombinant HDAC6) was 31 nM and the IC50 (human recombinant HDAC1; [1]) was 47 µM.
With `CCN1CCN(C(=O)N(Cc2ccc(-c3nnc(C(F)(F)F)o3)cn2)c2ccc(F)cc2)CC1` [Compound 21870, 4-Ethyl-N-(4-fluorophenyl)-N-((5-(5-(trifluoromethyl)-1,3,4-oxadiazol-2-yl)pyridin-2-yl)methyl)piperazine-1-carboxamide] the “HDAC6 selectivity (fold)” value (human recombinant HDAC6) was 400 fold, the IC50 (human recombinant HDAC6) was 113 nM and the IC50 (human recombinant HDAC1; [1]) was 45.1 µM.
For `CCN1CCN(C(=O)N(Cc2ccc(-c3nnc(C(F)(F)F)o3)cc2F)c2cccc(Cl)c2)CC1` [Compound 21861, N-(3-Chlorophenyl)-4-ethyl-N-(2-fluoro-4-(5-(trifluoromethyl)-1,3,4-oxadiazol-2-yl)benzyl)piperazine-1-carboxamide], the “HDAC6 selectivity (fold)” value (human recombinant HDAC6) was 40 fold, the IC50 (human recombinant HDAC6) was 343 nM and the IC50 (human recombinant HDAC1; [1]) was 13.7 µM.
`O=C(N1CCS(=O)(=O)CC1)N(Cc1ccc(-c2nnc(C(F)F)o2)cn1)c1cccc(F)c1` [Compound 21830, N-((5-(5-(difluoromethyl)-1,3,4-oxadiazol-2-yl)pyridin-2-yl)methyl)-N-(3-fluorophenyl)thiomorpholine-4-carboxamide 1,1-dioxide] was tested, and the “HDAC6 selectivity (fold)” value (human recombinant HDAC6) was 1298 fold, the IC50 (human recombinant HDAC6) was 32 nM and the IC50 (human recombinant HDAC1; [1]) was 40.9 µM.
`CCN1CCN(C(=O)N(Cc2ccc(-c3nnc(C(F)(F)F)o3)cc2)c2ccc(F)cc2)CC1` [Compound 21868, 4-Ethyl-N-(4-fluorophenyl)-N-(4-(5-(trifluoromethyl)-1,3,4-oxadiazol-2-yl)benzyl)piperazine-1-carboxamide] was tested, and the “HDAC6 selectivity (fold)” value (human recombinant HDAC6) was 172 fold, the IC50 (human recombinant HDAC6) was 160 nM and the IC50 (human recombinant HDAC1; [1]) was 27.5 µM.
In the case of `O=C(N1CCN(C2COC2)CC1)N(Cc1ccc(-c2nnc(C(F)F)o2)cc1)c1ccccc1` [Compound 21954, N-(4-(5-(Difluoromethyl)-1,3,4-oxadiazol-2-yl)benzyl)-4-(oxetan-3-yl)-N-phenylpiperazine-1-carboxamide], the “HDAC6 selectivity (fold)” value (human recombinant HDAC6) is reported as 245 fold, the IC50 (human recombinant HDAC6) is reported as 145 nM and the IC50 (human recombinant HDAC1; [2]) is reported as 35.7 µM.
For `O=C(N1CCN(CCO)CC1)N(Cc1ccc(-c2nnc(C(F)(F)F)o2)cc1F)c1ccc(F)c(Cl)c1` [Compound 21669, N-(3-chloro-4-fluorophenyl)-N-(2-fluoro-4-(5-(trifluoromethyl)-1,3,4-oxadiazol-2-yl)benzyl)-4-(2-hydroxyethyl)piperazine-1-carboxamide], the “HDAC6 selectivity (fold)” value (human recombinant HDAC6) was 46 fold, the IC50 (human recombinant HDAC6) was 164 nM and the IC50 (human recombinant HDAC1; [1]) was 7.47 µM.
For `COc1cccc(N(Cc2ccc(-c3nnc(C(F)F)o3)cc2F)C(=O)N2CCN(C3COC3)CC2)c1` [Compound 21949, N-(4-(5-(Difluoromethyl)-1,3,4-oxadiazol-2-yl)-2-fluorobenzyl)-N-(3-methoxyphenyl)-4-(oxetan-3-yl)piperazine-1-carboxamide], the “HDAC6 selectivity (fold)” value (human recombinant HDAC6) was 383 fold, the IC50 (human recombinant HDAC6) was 126 nM and the IC50 (human recombinant HDAC1; [2]) was 48.3 µM.

Source: US10717716B2, “1,3,4-oxadiazole derivative compounds as histone deacetylase 6 inhibitor, and the pharmaceutical composition comprising the same” (Chong Kun Dang Pharmaceutical Corp., priority 2015, dated 2020)
